Measurements reported in patent US12369582B2, “Pyridyloxyacetic acid compound and use of same” (SUMITOMO CHEMICAL COMPANY, LIMITED, priority 2019, dated 2025).

Tested on: Phytophthora capsici
Test: Titer plate growth inhibition test on Phytophthora capsici zoospores in potato dextrose broth
Assay type: cell-based
Settings: final concentration 100 ppm; cultured at 27° C. for 3 days; absorbance at 600 nm vs non-treated section
Description: Next, test examples are shown. A non-treated in Test Example 1 means a section in which the same operation as in a treated section is performed except that Compound A is not used. After dispensing 1 μL of a dimethyl sulfoxide solution containing a predetermined concentration of Compound A into wells of a titer plate (96 wells), 150 μL of a potato dextrose broth containing zoospores of Phytophthora capsici was dispensed, and the mixture was prepared so as to have a final concentration of Compound A of 100 ppm and defined as a treated section. In addition, a non-treated section was prepared in other wells. The plate was cultured at 27° C. for 3 days to proliferate Phytophthora capsici […], and then the absorbance at 600 nm of each well of the titer plate was measured and defined as the growth degree of Phytophthora capsici. Based on the growth degree, the efficacy was calculated using “Formula 1”. Efficacy(%)=100×(X−Y)/X “Formula 1” • X: Growth degree of bacteria in non-treated section • Y: Growth degree of bacteria in treated section A test was performed according to Test Example 1 using sodium salt monohydrate of Compound A in place of Compound A. As a result, the efficacy was 90%. A test was performed according to Test Example 1 using Compound B in place of Compound A. As a result, the efficacy was 64%.

SMILES	Efficacy
CCOC(=O)COc1ncccc1Oc1ccc(F)cc1Cl [Compound B, 2-{[3-(2-chloro-4-fluorophenoxy)pyridin-2-yl]oxy}acetic acid ethyl ester]	64%
O=C(O)COc1ncccc1Oc1ccc(F)cc1Cl [Compound A, 2-{[3-(2-Chloro-4-fluorophenoxy)pyridin-2-yl]oxy}acetic acid]	100%
